Measured values: patent US20090170808A1, “ORAL AGENT FOR IMPROVING AND PROTECTING THE FUNCTION OF JOINT COMPRISING HYALURONIC ACID-PHOSPHOLIPID COMPLEXES” (priority 2005, published 2009)
Marks after values point to notes of the source that are not given here.

What was measured:
[1] = tested on: papain-induced OA model in rabbit; assay: HA content in knee joint synovial fluid, papain-induced OA model in rabbit (HA RIA kit); assay type: in vivo; settings: n = 6, x ± s
Protocol: (§1) 30 rabbits were randomly divided into five groups, i.e., normal control group; normal saline (NS) injection group; hyaluronic acid (HA) oral administration group; hyaluronic acid (HA) injection group; and hyaluronic acid-phospholipid complex (HA-PL, the complex of Preparation Example 2) oral administration group.
(§2) Using the papain-induced OA model in rabbit, the latter four groups of rabbits received injection of 0.1 ml of a papain solution (1.8 mg papain and 50 mg cysteine hydrochloride in 1 ml normal saline, sterile filtered through a 0.22 μm filter membrane) into the right knee articular cavity. A second injection was performed 3 days later.
Starting on Day 7 post-modeling, the rabbits were dosed. For administration by injection into joint cavity, a injection volume of 0.3 ml, and a hyaluronic acid concentration of 10 mg/ml were used, once every five days for a total of 3 injections during the test. For oral administration, the respective agent was given intragastrically every day, at a dosage 40 mg/kg body weight, calculated as hyaluronic acid, in a volume of 1 ml/100 g body weight, for 2 weeks.
(§3) After completion of the administration, synovial fluid was aspirated, and the rabbits were sacrificed. […] The total amount of GAG in the cartilage was determined by the azure A method, and the level of HA in the synovial fluid was determined using an HA RIA kit.

[2] = tested on: papain-induced OA model in rabbit; assay: GAG content in knee joint cartilage, papain-induced OA model in rabbit (azure A method); assay type: in vivo; design: unit not given here; settings: n = 6, x ± s
Protocol: as §1, §2
Starting on Day 7 post-modeling, the rabbits were dosed. […] For oral administration, the respective agent was given intragastrically every day, at a dosage 40 mg/kg body weight, calculated as hyaluronic acid, in a volume of 1 ml/100 g body weight, for 2 weeks.
as §3
The content of GAG in samples from each group was expressed as the amount contained in every 1 mg wet weight of the cartilage ( x±s), and was analyzed by t-test for significance test.

[3] = injection into joint cavity, 0.3 ml of 10 mg/ml, once every five days, 3 injections
[4] = oral (intragastric) daily, 40 mg/kg calculated as hyaluronic acid, 2 weeks

Substance: hyaluronic acid [HA]
- HA content in knee joint synovial fluid [1, 3]: 4.64 ± 0.51^1) mg · ml^−1
- HA content in knee joint synovial fluid [1, 4]: 4.65 ± 0.54^1) mg · ml^−1
- GAG Content in knee joint cartilages [2, 3]: 29.9 ± 4.4^1),2) ng · ml^−1
- GAG Content in knee joint cartilages [2, 4]: 23.3 ± 4.2
